Source: patent US20260275307A1, “PRIME EDITING SYSTEM BASED ON PERV REVERSE TRANSCRIPTASE” (Jiangxi Agricultural University, priority 2023, published 2026)

What was measured:
primary PFF cells = test: Editing efficiency of PE editors in primary PFF cells (high throughput sequencing of target sites); type: cell-based, pig
Protocol: The sows for 31 days gestation were sacrificed and dissected, the whole uterus was taken out, the fetus and the fetal membrane were taken out one by one, and transferred into a DMEM solution containing 5% (v/v) penicillin and streptomycin (v/v; Gibco: 15140-122) for storage in a refrigerator at 4° C. In a clean bench, the isolated fetus was transferred one by one to a sterile 10 cm culture dish, and the head, viscera, limbs and tail of the fetus were removed with sterile forceps and scissors; the remaining part of the fetus was cleaned with a PBS solution containing 5% (v/v) penicillin and streptomycin (Gibco: 15140-122)), and then the remaining part of the fetus was cut to about 1 mm^3 within 10-15 minutes, and 5 ml of collagenase working solution was added to the cut tissue; the tip of 1 ml of sterile pipettor was cut off with scissors, and the cut tissue pieces were transferred to a 15 ml sterile centrifuge tube, sealed and placed in a shaker at 37° C. for incubation for 2 hours. After that, the centrifuge tube was centrifuged at 1000 rpm for 5 minutes, the upper collagenase working solution was removed, and the incubated tissues were evenly transferred into two T75 culture dishes and cultured in a 37° C., 5% CO2 sterile incubator. […]

[1] = tested on: immortalized BFP fluorescence reporter PFF cell line; test: Editing efficiency of PE editors in immortalized BFP fluorescence reporter PFF cell line (flow cytometry, GFP ratio); type: cell-based, Bama pig; conditions: epPE editors vs PE2c-Puro and each other, FIG. 3
Protocol: The immortalized BFP fluorescence reporter PFF cell line was cultured in high glucose DMEM (Gibco, USA) medium containing 12% fetal bovine serum ((v/v), Excell, China) and 1% penicillin ((v/v), BI, China). The cell line was constructed by the laboratory, firstly, the SV40 large T antigen was site-directed knocked into the H11 safe harbor site of the primary PFFs of Bama pig, and then the BFP vector was site-directed integrated into the Rosa26 safe harbor site of immortalized PFF by the CRISPR Cas9 technology, and finally the BFP fluorescence reporter PFF cell line was obtained by serial passage. […]
After the cells were digested with 0.125% trypsin (Gibco, USA), the cells were collected into a 1.5 mL EP tube, centrifuged at 200×g for 5 minutes, the supernatant was discarded, 50 μL of 1×PBS buffer was added to resuspend the cells, and the cells were detected by using a flow cytometer (BD, USA), the wild-type fluorescence reporter cells were used as the background, and GFP-positive cells were circled by using two channels of FITC+PE, and the GFP ratio was the editing efficiency.

[2] = tested on: fluorescent reporter PFF cell line; test: Small molecules: effect on PE editing efficiency in fluorescent reporter PFF cell line; type: cell-based, pig; conditions: 20 μM RS-1, 200 ng/mL Nocodazole, FIG. 18A; for PE efficiency: single molecule added to medium after transfection: 40 μM L755507, 0.1 μM Brefeldin A, 10 nM TSA; for increase of editing efficiency: single molecule: 10 nM TSA
Protocol: From this, it can be expected that some small molecules may also improve the editing efficiency of PE. […] Cells were treated by adding the corresponding concentrations of small molecules or combinations of small molecules, respectively, to the medium after transfection.

[3] = tested on: 293T cells co-transfected with fluorescent reporter gene vector; test: 293T cell fluorescence reporter gene co-transfection experiment; type: cell-based; conditions: Bmx-PERV-RT with 6 mutation sites and combinations; 3 editing forms; FIG. 12
Protocol: 1×10^5 cells were inoculated into a 24-well culture dish 17-24 hours before cell transfection, and when the cell confluence reached 50-80%, transfection was performed using H4000 reagent (Ingran, China), and each transfection reaction included 200 ng PE editor, 100 ng pegRNA, 100 ng ngRNA, 10 ng fluorescent reporter gene vector and 0.5 μL H4000 reagent. The cells were collected 48 hours after transfection, and detected by flow cytometry (BD, USA), with wild-type fluorescence reporter cells as background, and GFP positive cells were circled with FITC+PE double channel, with GFP ratio as editing efficiency.

primary PFFs = test: Small molecules: effect on PE editing efficiency in primary PFFs; type: cell-based, pig; conditions: primary PFF; FIG. 18C
Protocol: Cells were treated by adding the corresponding concentrations of small molecules or combinations of small molecules, respectively, to the medium after transfection.
The effect of Rs-1, Nocodazole, TSA, and the combination of Rs-1+TSA and Rs-1+Nocodazole in primary PFFs was then verified.

[4] = tested on: sheep fetal fibroblasts (SFF); test: Editing efficiency of PE editors in sheep fetal fibroblasts; type: cell-based; conditions: pPE editors with 4 point mutations; FIG. 9
Protocol: (§1) Canine fetal fibroblasts (DFF) were isolated from a female canine fetus on 30 days of gestation, and the specific establishment method was the same as that of PFF; goat fetal fibroblasts (SFF) were given by Yunnan Agriculture University Weijiang Laboratory, and the cells were isolated from a small tailed han sheep fetus; 293T cells were purchased from the Cell Bank of the Type Culture Collection Committee of Chinese Academy. All three cells were cultured in high-glucose DMEM (Gibco, USA) culture medium containing 12% (v/v) fetal bovine serum (Excell, China) and 1% (v/v) penicillin-streptomycin (BI, China) at 37° C. in a 5% CO2 incubator.
(§2) DFF and SFF: The method is similar to the transfection method of PFF, and the difference lies in that when DFF and SFF were transformed, the cells were shocked by using the EN-150 program, then again by using the CA-113 program.
(§3) SFF and DFF cells: 3 μg/mL puromycin (Sigma, Japan) was added 48 hours after electrotransformation for screening for 2 days, and then the culture medium was changed for further culture for 2 days.
(§4) The method is same with the detection of editing efficiency of PFF.

[5] = tested on: dog fetal fibroblasts (DFF); test: Editing efficiency of PE editors in dog fetal fibroblasts; type: cell-based; conditions: pPE editors with 4 point mutations; canine fetal fibroblasts; FIG. 9
Protocol: as §1, §2, §3, §4

HEK293T cells = test: Editing efficiency of PE editors in 293T cells (puromycin screening, sequencing); type: cell-based; conditions: pPE editors with 4 point mutations, FIG. 9
Protocol: as §1
293T cells: cells were inoculated into a 24-well culture dish 1-2 days before cell transfection, and when the cell confluency reached 50-60%, the cells were transfected with Lipofectamine 3000 reagent (Invitrogen, USA), and each transfection reaction included 1 μg PE editor, 0.5 μg pegRNA, 0.5 μg ngRNA and 1 μL Lipofectamine 3000 reagent.
293T cells: after transfection, 3 μg/mL puromycin (Sigma, Japan) was added for screening for 3 days, and then the culture medium was changed and cultured for another 2 days.
as §4

Row | Compound | PE efficiency [2] | improvement of overall editing efficiency for the 6 sites (primary PFFs) [%] | increase of editing efficiency [2] [%] | other results
1 | epPE-AC-M3Δ-Puro: PE editor: nCas9 fused to PERV-AC-NC and PERV-AC-RT (ΔRNase H) with D199N, T305K, W312F; SEQ ID NO: 22 |  |  |  | average editing efficiency (primary PFF cells; 6 editing sites tested in the primary PFF, FIG. 4): higher than that of epPE-B-M3Δ-Puro; editing efficiency (GFP ratio) [1]: higher than that of epPE-B-M3Δ-Puro
2 | CCCCCCNC(=O)Nc1ccc(S(=O)(=O)Nc2ccc(CCNC[C@H](O)COc3ccc(O)cc3)cc2)cc1 [L755507] | significantly (P<0.05 or P<0.01) improved PE efficiency |  |  | 
3 | M5.1: pPE editor, PERV-RT variant carrying 5 amino acid mutations (D199N, T305K, W312F, L602W, V222A); SEQ ID NO: 45 |  |  |  | efficiency (GFP ratio) [3]: overall optimal efficiency in 3 editing forms
4 | CC(/C=C/C(=O)NO)=C\[C@@H](C)C(=O)c1ccc(N(C)C)cc1 [TSA, Trichostatin A] | significantly (P<0.05 or P<0.01) improved PE efficiency | 14.3 | 34.4 | 
5 | COC(=O)Nc1nc2ccc(C(=O)c3cccs3)cc2[nH]1 [Nocodazole] | significantly (P<0.05 or P<0.01) improved PE efficiency | 36.4 | 66.9 | 
6 | O=C(Nc1ccc(Br)cc1)c1ccc(Br)c(S(=O)(=O)NCc2ccccc2)c1 [Rs-1] | significantly (P<0.05 or P<0.01) improved PE efficiency | 20.8 | 32.7 | 
7 | C[C@H]1CCC/C=C/[C@@H]2C[C@H](O)C[C@H]2[C@H](O)/C=C/C(=O)O1 [BrefeldinA, Brefeldin A] | significantly (P<0.05 or P<0.01) improved PE efficiency |  |  | 
8 | bmx-pPE-C-M4-puro: pPE editor, Bama pig type C PERV-RT with D199N, T305K, W312F, L602W; SEQ ID NO: 31 |  |  |  | editing efficiency (primary PFF cells; pPE editors with 4 point mutations in PFF, FIG. 8): overall higher efficiency; editing efficiency [4]: higher efficiency at most sites; editing efficiency [5]: higher efficiency at most sites; editing efficiency (HEK293T cells): higher efficiency at most sites
9 | epPE-AC-M4Δ*-Puro: epPE-AC-M3Δ-Puro with RT amino acids 329-332 mutated from EKGE to PGTL; SEQ ID NO: 23 |  |  |  | editing efficiency (GFP ratio) [1]: higher than that of epPE-B-M4Δ*-Puro
